Results: patent US9597369B2, “Inhibitors of atypical protein kinase C and their use in treating hedgehog pathway-dependent cancers” (The Board of Trustees of the Leland Stanford Junior …, priority 2011, dated 2017)
pIC50: −log10 of the molar value. Each block holds one compound with its values, some of them ahead of it. Peptide text beside a SMILES is read from it. * marks the point of attachment. Myristoyl = CCCCCCCCCCCCCC(=O)*

What was measured:
Hh signaling = Hh signaling (gli1 mRNA, Gli target gene induction) in BCC cells; format: cell-based, mouse
Method: (§1) Subconfluent ASZ001 cells were serum-starved and inhibitors added for 48 hrs prior to MTT assay and 24 hrs prior to visualize cilia and assay Gli target gene induction. Stability assays performed with ASZ001 preincubated with PSI for one hour before 20 ug/ml cyclohexamide addition at various time points.
(§2) Aligned 36 bp raw reads with Bowtie using the NCBI37/mm9 reference genome. Differential expression analysis was performed on the 3′ exon with the Cufflinks suite using mouse RefSeq gene predictions as a reference transcriptome. Annotated coding transcripts were filtered for significant expression by a RPKM of 25 in at least one sample set. […] Transcripts were validated using Brilliant II SYBR Green qRT-PCR Master Mix Kit (Agilent Technologies) with primers listed in the following table. Two-tail p-value between our gene sets and other gene sets calculated using Fisher's Exact Test.

ASZ001 cells [1] = test: 3' end RNA sequencing of inhibitor-treated BCC cells; format: cell-based, mouse; details: inhibitor 24 hrs, FIG. 3a
Method: as §2

non-tumorigenic cells = test: Proliferation of non-tumorigenic cells; format: cell-based, mouse and human; details: mouse dermal fibroblasts, mouse keratinocytes, human retinal pigment epithelial cells, FIG. 7
Method: (§3) Primary mouse dermal cells were isolated as previously described (Bershteyn, M., Atwood, S. X., Woo, W.-M., Li, M. & Oro, A. E. MIM and cortactin antagonism regulates ciliogenesis and hedgehog signaling. Dev. Cell 19, 270-283 (2010)). Dermal cells were grown in Amniomax media containing supplement and antibiotics (Invitrogen). ASZ001 cells were grown in 154CF media containing 2% chelated FBS, HKGS supplement, and antibiotics (Invitrogen). Keratinocytes (HPA Culture Collections) were grown in CnT-07 media containing supplement and 0.07 mM CaCl2 (CelINTec). Cells were sterum-starved between 24-48 hrs to induce ciliogenesis. MTT cell proliferation assay was performed using manufacturer's protocol from Invitrogen.

allografted BCC tumors = details: mouse, in vivo
From the text: All mouse studies were approved by and conformed to the policies and regulations of the Institutional Animal Care and Use Committees at Stanford University and the Children's Hospital Oakland Research Institute. Ptch1+/−, K14CreER2, p53flox/flox mice were used to develop BCC tumors. Tumors were allografted as previously described (Wang, G. Y. et al. Establishment of Murine Basal Cell Carcinoma Allografts: A Potential Model for Preclinical Drug Testing and for Molecular Analysis. Journal of Investigative Dermatology (2011).doi:10.1038/jid.2011.204). Nine tumors from three mice were treated topically twice daily with 0.8 mg/kg PSI dissolved in DMSO for at least 32 days. Ten tumors from three mice were treated with DMSO twice daily as a control. Mice were euthanized and tumors harvested depending on tumor size that exceeded our animal care guidelines. We measured the change in tumor size with calipers every three to four days. Pairwise comparisons between DMSO and PSI treatment were done using a two-sided unpaired t test with GraphPad Prism software.

ASZ001 cells [2] = format: cell-based, mouse; details: 48 h
Method: as §3, §1

Structure (SMILES): CC1=C2C[C@H]3[C@@H](CC=C4C[C@@H](O)CC[C@@]43C)[C@@H]2CC[C@]12O[C@@H]1C[C@H](C)CN[C@H]1[C@H]2C [cyclopamine]
- gli1 and apkciota transcript (Hh signaling; BCC cells, FIG. 2g): specifically suppressed

Structure (SMILES): Cc1nn(-c2ccccc2)c(C)c1/C=N/N1CCN(Cc2ccccc2)CC1 [Sant-1]
- cdc42 transcript (Hh signaling; mouse BCC cells, FIG. 2i): repressed
- pard6a transcript (Hh signaling; mouse BCC cells, FIG. 2i): elevated
- transcripts changed two-fold or greater compared to control (ASZ001 cells [1]): 5700 transcripts

Structure (SMILES): CNC1CCC(N(Cc2cccc(-c3ccncc3)c2)C(=O)c2sc3ccccc3c2Cl)CC1 (centres unmarked) [SAG]
- gli1 transcription (Hh signaling; BCC cells, agonist alone, FIG. 3d): activates gli1 transcription

- pIC50 (ASZ001 cells [2]): 5.30
Structure (SMILES): CCCCCCCCCCCCCC(=O)N[C@@H](CO)C(=O)N[C@H](C(=O)N[C@@H](Cc1ccc(O)cc1)C(=O)N[C@@H](CCCNC(=N)N)C(=O)N[C@@H](CCCNC(=N)N)C(=O)NCC(=O)N[C@@H](C)C(=O)N[C@@H](CCCNC(=N)N)C(=O)N[C@@H](CCCNC(=N)N)C(=O)N[C@@H](Cc1c[nH]c2ccccc12)C(=O)N[C@@H](CCCNC(=N)N)C(=O)N[C@@H](CCCCN)C(=O)N[C@@H](CC(C)C)C(=O)N[C@@H](Cc1ccc(O)cc1)C(=O)O)[C@@H](C)CC [PSI] (Myristoyl-SIYRRGARRWRKLY-OH)
- proliferation in non-tumorigenic cells (non-tumorigenic cells): unaffected
- adverse effects on normal skin (allografted BCC tumors): no adverse effects to PSI treatment except a mild hair phenotype
